Measurements reported in patent US20260234160A1, “NEW SUBSTITUTED QUINOLINE COMPOUNDS FOR COMBATITNG PHYTOPATHOGENIC FUNGI” (BASF SE, priority 2023, published 2026).

What was measured:
Sclerotinia sclerotiorum = assay: Preventative fungicidal control of white mold on oilseed rape caused by Sclerotinia sclerotiorum (green house); type: in vivo; details: 100 ppm, assessed after 14 days, untreated 100%
Method: The compound was dissolved in a mixture of acetone and/or dimethylsulfoxide and the wetting agent/emulsifier Wettol, which is based on ethoxylated alkylphenoles, in a ratio (volume) solvent-emulsifier of 99 to 1 to give a total volume of 5 ml. Subsequently, water was added to total volume of 100 ml.
This stock solution was then diluted with the described solvent-emulsifier-water mixture to the final concentration given in the table below.
Oilseed rapes were grown in pots to the 13 to 14 leaf stage. These plants were sprayed to runoff with previously described spray solution, containing the concentration of active ingredient or their mixture mentioned in the table below.
The plants could air-dry. The next day the applicated rape petals were fixed with 25 μl of 2.5% methylcellulose on leaf 1 and 2. 25 μl of a spore suspension of Sclerotinia sclerotiorum was pipetted on each fixed rape petal. After 14 days at 20° C. and a relative humidity of 60% the extent of fungal attack on the leaves was visually assessed as % diseased leaf area.

Botrytis cinerea = assay: Activity against the grey mold Botrytis cinerea in the microtiterplate test; type: cell-based; details: 31 ppm, MTP, 405 nm, 7 days after inoculation
Method: The active compounds were formulated separately as a stock solution having a concentration of 10000 ppm in dimethyl sulfoxide.
The stock solutions were mixed according to the ratio, pipetted onto a micro titer plate (MTP) and diluted with water to the stated concentrations. A spore suspension of Botrytis cinerea in an aqueous biomalt or yeast-bactopeptone-sodium acetate solution was then added. The plates were placed in a water vapor-saturated chamber at a temperature of 18° C. Using an absorption photometer, the MTPs were measured at 405 nm 7 days after the inoculation.

Corynespora cassiicola = assay: Activity against Corynespora cassiicola in the microtiterplate test; type: cell-based; details: 31 ppm, MTP
Method: The active compounds were formulated separately as a stock solution having a concentration of 10000 ppm in dimethyl sulfoxide. The stock solutions were mixed according to the ratio, pipetted onto a micro titer plate (MTP) and diluted with water to the stated concentrations. A spore suspension of the Corynespora cassiicola in an aqueous biomalt or yeast-bactopeptone-sodium acetate solution was then added.

| SMILES | growth of the pathogen (% diseased leaf area) (Sclerotinia sclerotiorum) | growth of the pathogen (Botrytis cinerea) [%] | growth of the pathogen (Corynespora cassiicola) [%] |
| --- | --- | --- | --- |
| C[C@@H]1N=C(c2cnc3c(F)cccc3c2)c2ccccc2OC1(C)C [Ex-1, (S)-5-(8-fluoroquinolin-3-yl)-2,2,3-trimethyl-2,3-dihydrobenzo[f][1,4]oxazepane] | less than 1% | 0 | – |
| C[C@@H]1N=C(c2cnc3c(F)cccc3c2)c2cccc(F)c2OC1(C)C [Ex-3, (3S)-9-fluoro-5-(8-fluoro-3-quinolyl)-2,2,3-trimethyl-3H-1,4-benzoxazepine] | – | 0 | – |
| C[C@@H]1N=C(c2cnc3ccccc3c2)c2cccc(F)c2OC1(C)C [Ex-4, (3S)-9-fluoro-2,2,3-trimethyl-5-(3-quinolyl)-3H-1,4-benzoxazepine] | – | 0 | 1 |
